The values that follow are results of earlier work, collected in patent US10073089B2 (priority 2011, dated 2018).

This data set relates to torpedo electrocyte membranes. The following applies: read-out: Sensitivity (concentration in nM).

As for 13-desmethyl spirolide C [13-SPX C], the IC50 was 108 nM.

On to gymnodimine A [GYM A], for which the IC50 is 391 nM.
